± gives the expanded uncertainty stated by the source.
Experiments:
[1] = 100 kPa, Liquid; for viscosity: Concentric cylinders viscometry; for mass density: Vibrating tube method
[2] = xn = mol fraction of the nth substance listed; settings: 100 kPa, Liquid, x2 = 0; for viscosity: Concentric cylinders viscometry; for mass density: Vibrating tube method

Compound	viscosity ([1]; 293.15 K) [mPa·s]	mass density ([1]; 293.15 K) [kg/m3]	viscosity ([1]; 298.15 K) [mPa·s]	mass density ([1]; 298.15 K) [kg/m3]	viscosity ([1]; 303.15 K) [mPa·s]	mass density ([1]; 303.15 K) [kg/m3]	viscosity ([1]; 308.15 K) [mPa·s]	mass density ([1]; 308.15 K) [kg/m3]	viscosity ([1]; 313.15 K) [mPa·s]	mass density ([1]; 313.15 K) [kg/m3]	viscosity ([1]; 318.15 K) [mPa·s]	mass density ([1]; 318.15 K) [kg/m3]	viscosity ([1]; 323.15 K) [mPa·s]	mass density ([1]; 323.15 K) [kg/m3]	viscosity ([2]; 293.15 K) [mPa·s]	mass density ([2]; 293.15 K) [kg/m3]	viscosity ([2]; 298.15 K) [mPa·s]	mass density ([2]; 298.15 K) [kg/m3]	viscosity ([2]; 303.15 K) [mPa·s]	mass density ([2]; 303.15 K) [kg/m3]	further results
Nc1ccccc1 [aniline]	4.37 ± 0.53	1021.7 ± 0.3	3.8 ± 0.46	1017.4 ± 0.3	3.13 ± 0.38	1013.2 ± 0.3	2.75 ± 0.33	1009 ± 0.3	2.43 ± 0.29	1004.7 ± 0.3	2.14 ± 0.26	1000.4 ± 0.3	1.96 ± 0.24	995.5 ± 0.3	–	–	–	–	–	–	–
CCC(C)O (stereo not drawn) [butan-2-ol]	3.67 ± 0.44	806.7 ± 0.2	3.04 ± 0.37	802.7 ± 0.2	2.54 ± 0.31	798.4 ± 0.2	2.13 ± 0.26	794.1 ± 0.2	1.8 ± 0.22	789.8 ± 0.2	1.54 ± 0.19	785.2 ± 0.2	1.33 ± 0.16	780.6 ± 0.2	–	–	–	–	–	–	–
CCC(C)O (stereo not drawn) [butan-2-ol] + Nc1ccccc1	–	–	–	–	–	–	–	–	–	–	–	–	–	–	3.67 ± 0.44	806.7 ± 0.2	3.04 ± 0.37	802.7 ± 0.2	2.54 ± 0.31	798.4 ± 0.2	viscosity ([2]; 308.15 K): 2.13 ± 0.26 mPa·s; mass density ([2]; 308.15 K): 794.1 ± 0.2 kg/m3; viscosity ([2]; 313.15 K): 1.8 ± 0.22 mPa·s; mass density ([2]; 313.15 K): 789.8 ± 0.2 kg/m3; viscosity ([2]; 318.15 K): 1.54 ± 0.19 mPa·s; mass density ([2]; 318.15 K): 785.2 ± 0.2 kg/m3; viscosity ([2]; 323.15 K): 1.33 ± 0.16 mPa·s; mass density ([2]; 323.15 K): 780.6 ± 0.2 kg/m3
CCCC(C)O (stereo not drawn) [pentan-2-ol]	3.97 ± 0.48	809.3 ± 0.2	3.44 ± 0.41	805.3 ± 0.2	2.94 ± 0.35	801.2 ± 0.2	2.48 ± 0.3	797 ± 0.2	2.04 ± 0.25	792.7 ± 0.2	1.65 ± 0.2	788.4 ± 0.2	1.29 ± 0.16	784 ± 0.2	–	–	–	–	–	–	–
CCCC(C)O (stereo not drawn) [pentan-2-ol] + Nc1ccccc1	–	–	–	–	–	–	–	–	–	–	–	–	–	–	3.97 ± 0.48	809.3 ± 0.2	3.44 ± 0.41	805.3 ± 0.2	2.94 ± 0.35	801.2 ± 0.2	viscosity ([2]; 308.15 K): 2.48 ± 0.3 mPa·s; mass density ([2]; 308.15 K): 797 ± 0.2 kg/m3; viscosity ([2]; 313.15 K): 2.04 ± 0.25 mPa·s; mass density ([2]; 313.15 K): 792.7 ± 0.2 kg/m3; viscosity ([2]; 318.15 K): 1.65 ± 0.2 mPa·s; mass density ([2]; 318.15 K): 788.4 ± 0.2 kg/m3; viscosity ([2]; 323.15 K): 1.29 ± 0.16 mPa·s; mass density ([2]; 323.15 K): 784 ± 0.2 kg/m3
CC(C)O [propan-2-ol]	2.42 ± 0.29	785.4 ± 0.2	2.08 ± 0.25	781.1 ± 0.2	1.8 ± 0.22	776.8 ± 0.2	1.56 ± 0.19	772.4 ± 0.2	1.36 ± 0.16	768 ± 0.2	1.19 ± 0.14	763.4 ± 0.2	1.05 ± 0.13	758.8 ± 0.2	–	–	–	–	–	–	–
CC(C)O [propan-2-ol] + Nc1ccccc1	–	–	–	–	–	–	–	–	–	–	–	–	–	–	2.42 ± 0.29	785.4 ± 0.2	2.08 ± 0.25	781.1 ± 0.2	1.8 ± 0.22	776.8 ± 0.2	viscosity ([2]; 308.15 K): 1.56 ± 0.19 mPa·s; mass density ([2]; 308.15 K): 772.4 ± 0.2 kg/m3; viscosity ([2]; 313.15 K): 1.36 ± 0.16 mPa·s; mass density ([2]; 313.15 K): 768 ± 0.2 kg/m3; viscosity ([2]; 318.15 K): 1.19 ± 0.14 mPa·s; mass density ([2]; 318.15 K): 763.4 ± 0.2 kg/m3; viscosity ([2]; 323.15 K): 1.05 ± 0.13 mPa·s; mass density ([2]; 323.15 K): 758.8 ± 0.2 kg/m3

Source: the NIST ThermoML archive (doi:10.1021/acs.jced.6b00210)
